Assay results as given in patent US7488826B2, “Substituted pyrroline kinase inhibitors” (Janssen Pharmaceutica N.V., priority 2003, dated 2009).

Key:
Assay type in all cases: biochemical
[1] = molecular target: PKC-γ (Homo sapiens, UniProt P05129); test: Protein Kinase C Histone-Based Assay; conditions: histone III substrate
Experimental: (§1) Compounds were evaluated for PKC isozyme selectivity using histone III as the substrate. PKC isozymes α, β-II or γ were added to a reaction mixture that contained 20 mM HEPES, (pH 7.4), 940 μM CaCl2, 10 mM MgCl2, 1 mM EGTA. 100 μg/mL phosphatidylserine, 20 μg/mL diacylglycerol, 30 μM ATP, […] [^33P]ATP and 200 μg/mL histone III. The reaction was incubated for 10 min at 30° C. Reactions were terminated by TCA precipitation and spotting on Whatman P81 filters. Filters were washed in 75 mM phosphoric acid and the radioactivity quantified by liquid scintillation counting.

[2] = molecular target: PKC-βII (Homo sapiens, UniProt P05771); test: Protein Kinase C Histone-Based Assay; conditions: histone III substrate
Experimental: as §1

[3] = molecular target: PKC-α (Homo sapiens, UniProt P17252); test: Protein Kinase C Histone-Based Assay; conditions: histone III substrate
Experimental: as §1

[4] = molecular target: T1, recombinant rabbit GSK-3β protein (Oryctolagus cuniculus, UniProt G1T8E2); test: Glycogen Synthase Kinase-3 Assay (33P-ATP phosphorylation of PPI-2)
T1 construct: purchased New England Biolabs
Experimental: Compounds were tested for the ability to inhibit recombinant rabbit GSK-3β protein using the following protocol. The test compound was added to a reaction mixture containing Protein Phosphatase Inhibitor-2 (PPI-2) (Calbiochem) (45 ng), rabbit GSK-3β protein (New England Biolabs) (0.75 units) and ^33P-ATP (1 μCi) in 50 mM Tris-HCl (pH 8.0), 10 mM MgCl2, 0.1% BSA, 1 mM DTT and 100 μM Sodium Vanadate. The mixture was reacted for 90 minutes at 30° C. to allow phosphorylation of the PPI-2 protein and then the protein in the reaction was precipitated using 10% TCA. The precipitated protein was collected on filter plates (MultiScreen-DV/Millipore), which were subsequently washed. Finally, the radioactivity was quantified using a TopCount Scintillation Counter (Packard). […] Staurosporine or Valproate, known inhibitors of GSK-3β, were used as a positive control for screening.

PKC-βII, sequence (P05771 1-673 isoform P05771-2): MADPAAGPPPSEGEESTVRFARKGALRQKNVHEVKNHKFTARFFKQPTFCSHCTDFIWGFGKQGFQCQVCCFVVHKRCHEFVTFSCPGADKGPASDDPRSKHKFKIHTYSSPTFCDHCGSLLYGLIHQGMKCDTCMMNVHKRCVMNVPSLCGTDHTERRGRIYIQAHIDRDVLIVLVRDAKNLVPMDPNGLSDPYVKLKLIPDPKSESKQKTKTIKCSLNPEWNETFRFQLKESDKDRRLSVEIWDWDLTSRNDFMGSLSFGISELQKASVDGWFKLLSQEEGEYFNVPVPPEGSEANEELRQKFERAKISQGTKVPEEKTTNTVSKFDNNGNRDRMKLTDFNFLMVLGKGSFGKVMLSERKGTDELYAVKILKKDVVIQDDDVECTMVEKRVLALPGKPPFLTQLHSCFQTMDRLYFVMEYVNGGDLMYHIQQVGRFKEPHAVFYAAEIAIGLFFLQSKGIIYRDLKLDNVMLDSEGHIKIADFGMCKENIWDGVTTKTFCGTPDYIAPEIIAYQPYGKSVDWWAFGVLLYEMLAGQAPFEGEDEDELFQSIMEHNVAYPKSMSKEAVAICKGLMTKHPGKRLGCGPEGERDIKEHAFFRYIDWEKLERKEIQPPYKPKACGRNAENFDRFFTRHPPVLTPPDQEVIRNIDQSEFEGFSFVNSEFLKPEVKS
T1 sequence (G1T8E2 1-432): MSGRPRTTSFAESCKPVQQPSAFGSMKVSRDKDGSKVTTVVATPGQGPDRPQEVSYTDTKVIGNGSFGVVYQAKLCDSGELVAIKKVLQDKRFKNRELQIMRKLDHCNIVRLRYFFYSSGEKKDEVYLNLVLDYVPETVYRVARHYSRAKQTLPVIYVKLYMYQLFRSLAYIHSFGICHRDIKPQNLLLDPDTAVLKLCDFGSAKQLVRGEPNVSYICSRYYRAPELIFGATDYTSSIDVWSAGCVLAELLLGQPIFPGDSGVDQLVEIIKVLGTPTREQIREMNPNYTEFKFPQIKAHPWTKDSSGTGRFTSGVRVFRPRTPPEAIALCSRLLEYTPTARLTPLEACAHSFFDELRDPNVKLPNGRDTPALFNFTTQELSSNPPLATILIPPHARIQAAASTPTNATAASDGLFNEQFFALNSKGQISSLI

inhibition at 10 µM ([1]; @10 μM) [%] | inhibition at 1 µM [2] [%] | inhibition at 10 µM ([3]; @10 μM) [%] | IC50 [4] [nM] | IC50 [1] [µM] | IC50 [3] [nM] | Compound
25 | 22 | 31 | 1.8 |  |  | COCCCn1cc(C2=C(c3ccccc3OC)C(=O)NC2=O)c2cnccc21 [Cpd 1, 3-(2-Methoxyphenyl)-4-[1-(3-methoxypropyl)-1H-pyrrolo[3,2-c]pyridin-3-yl]-1H-pyrrole-2,5-dione]
 | 28 |  | 20 | 4.21 | 2510 | COCCCn1cc(C2=C(c3ccccc3Cl)C(=O)NC2=O)c2cnccc21 [Cpd 2, 3-(2-Chlorophenyl)-4-[1-(3-methoxypropyl)-1H-pyrrolo[3,2-c]pyridin-3-yl]-1H-pyrrole-2,5-dione]
